Measurements taken from patent publication US9062045B2, “Triazolopyridine compounds” (Novartis AG, priority 2012, dated 2015).
Where a name gives a salt, the structure may show the parent alone. Read-outs that look alike come from different tables or passages of the source.

How the values were obtained:
[1] = target: human platelet PDE3 (Homo sapiens (Human), UniProt Q14432); test: hPDE3 assay ([3H]cAMP scintillation proximity assay); type: biochemical; conditions: human platelet PDE3
Source text: Here, compounds of formula I were screened for their ability to inhibit human PDE3 in the assay based on Amersham Pharmacia Biotech's Phosphodiesterase (PDE) [^3H]-adenosine 3′,5′ cyclic phosphate ([^3H]cAMP) Scintillation Proximity Assay (SPA). The assay is based on the hydrolysis of [^3H]cAMP, by human platelet PDE3, to [^3H]5′-adenoside monophosphate (5′-AMP). The [^3H]5′-AMP is specifically captured by yttrium silicate SPA beads in the presence of zinc sulphate.
• Optiplate and TopSeal-S (Can berra Packard) • Human platelet PDE3 (partially purified from human platelets)—a titration curve of human platelet PDE3 activity was performed to optimise the concentration of hPDE3 required in the assay. • Yttrium silicate SPA beads and [^3H]cAMP (Amersham) • Tris-Base, magnesium chloride, ethylenediaminetetraacetic acid (di-sodium salt), bovine serum albumin BSA and cAMP (Sigma) Solutions and Buffers: • Assay buffer: 7.56 g Tris-Base was dissolved in approximately 800 mL distilled water and the pH adjusted to 7.5 with 1 M hydrochloric acid. 10.3 mL 1 M magnesium chloride and 4.25 mL 0.5 M EDTA were added. The solution was made to 1 L with distilled water and stored at 4° C. On day of use 18 mL of the above solution was removed and 2 mL 5 mg/ml BSA were added thereto. • Enzyme buffer: 10 mM Tris-HCl at pH 7.5, 1 mM EDTA • Yttrium silicate SPA beads: 1 vial was reconstituted in 28 mL distilled water and stored at 4° C. Assay
The assay was performed in a final volume of 100 μL per well of an Optiplate (Canberra Packard). A 10 μL aliquot of the test compound dissolved in DMSO/distilled water was placed in a well of an Optiplate plate, followed by the addition of 80 μL ‘Assay mix’ (5.5 μL [^3H]cAMP and 88 μL “cold” cAMP were diluted to 8.8 mL using assay buffer). The reaction was started by adding 10 μL hPDE3 (50 μL stock hPDE3 solution was diluted 50 fold to 2.5 mL using enzyme buffer). The plate was incubated at room temperature for 30 min, the reaction was then terminated by the addition of 50 μL Yttrium silicate SPA beads (pre-warmed to room temperature) to all wells. […] The plate was sealed using TopSeal-S according to the manufacturer's instructions and counted using a Packard TopCount, each well being counted for 1 min. IC50 values were determined using non-linear regression.

[2] = tested on: GTL16 cells; test: GTL16 cell viability assay (CellTiter Glo); conditions: read-out: GTL-16 Proliferation IC50
[3] = target: c-Met receptor tyrosine kinase, GST-c-MET (969-1390) (Homo sapiens (Human), UniProt P08581); conditions: read-out: c-Met Biochem IC50
[4] = hPDE3 assay ([3H]cAMP scintillation proximity assay); type: biochemical, human; conditions: Table 3-C; title says PDE3, head says c-Met Biochem IC50 [nM]
[5] = 2 μM ATP, 60 minutes at room temperature

c-Met receptor tyrosine kinase, GST-c-MET (969-1390), sequence (P08581 969-1390): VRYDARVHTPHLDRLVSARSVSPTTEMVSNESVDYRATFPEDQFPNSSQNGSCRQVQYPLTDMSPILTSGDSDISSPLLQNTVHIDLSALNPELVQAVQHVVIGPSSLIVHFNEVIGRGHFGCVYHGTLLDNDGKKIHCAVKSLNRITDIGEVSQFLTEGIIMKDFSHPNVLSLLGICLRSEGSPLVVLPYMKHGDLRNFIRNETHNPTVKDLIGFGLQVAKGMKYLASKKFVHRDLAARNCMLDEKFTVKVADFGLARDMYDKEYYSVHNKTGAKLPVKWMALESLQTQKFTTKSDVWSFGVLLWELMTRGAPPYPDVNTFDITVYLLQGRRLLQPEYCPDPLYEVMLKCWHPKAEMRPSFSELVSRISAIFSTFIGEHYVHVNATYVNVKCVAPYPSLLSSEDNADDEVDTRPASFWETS
human platelet PDE3, sequence (Q14432 whole entry): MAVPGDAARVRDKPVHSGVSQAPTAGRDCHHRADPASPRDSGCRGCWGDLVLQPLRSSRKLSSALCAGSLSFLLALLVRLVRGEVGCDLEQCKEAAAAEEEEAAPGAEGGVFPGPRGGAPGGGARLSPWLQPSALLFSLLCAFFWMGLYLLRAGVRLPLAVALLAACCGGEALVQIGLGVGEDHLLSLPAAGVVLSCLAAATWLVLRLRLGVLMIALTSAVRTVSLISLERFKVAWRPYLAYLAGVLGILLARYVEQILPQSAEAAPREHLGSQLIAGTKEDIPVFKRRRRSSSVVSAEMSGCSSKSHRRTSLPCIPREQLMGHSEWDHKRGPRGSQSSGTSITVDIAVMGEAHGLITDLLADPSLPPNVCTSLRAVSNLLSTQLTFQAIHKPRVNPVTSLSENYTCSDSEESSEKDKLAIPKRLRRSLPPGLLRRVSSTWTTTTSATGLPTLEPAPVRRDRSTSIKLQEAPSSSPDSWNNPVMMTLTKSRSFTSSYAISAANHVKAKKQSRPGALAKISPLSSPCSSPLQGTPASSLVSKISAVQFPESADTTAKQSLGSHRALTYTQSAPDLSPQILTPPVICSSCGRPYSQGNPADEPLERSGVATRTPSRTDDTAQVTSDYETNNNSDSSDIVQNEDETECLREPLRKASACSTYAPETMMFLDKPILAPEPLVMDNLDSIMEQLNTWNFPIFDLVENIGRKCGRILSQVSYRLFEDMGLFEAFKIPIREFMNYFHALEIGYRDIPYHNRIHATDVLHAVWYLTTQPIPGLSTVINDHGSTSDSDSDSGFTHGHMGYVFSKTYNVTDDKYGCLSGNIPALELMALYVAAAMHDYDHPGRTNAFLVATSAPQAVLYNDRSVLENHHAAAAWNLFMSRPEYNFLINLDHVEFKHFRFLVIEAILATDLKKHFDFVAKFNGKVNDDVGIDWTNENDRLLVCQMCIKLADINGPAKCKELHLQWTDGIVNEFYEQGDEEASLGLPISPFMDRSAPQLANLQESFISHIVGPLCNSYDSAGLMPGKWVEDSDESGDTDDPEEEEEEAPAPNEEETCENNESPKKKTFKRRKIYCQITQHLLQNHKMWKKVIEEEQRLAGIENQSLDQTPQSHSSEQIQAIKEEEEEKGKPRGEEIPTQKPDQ

| SMILES | IC50 [1] | IC50 [4] | IC50 [3, 5] | IC50 ([2]; GTL16 cells, 24 hours) | IC50 [3] | IC50 [2] |
| --- | --- | --- | --- | --- | --- | --- |
| c1cc2ncc(N3CCOCC3)cc2cc1Sc1nnc2ccc(-c3cn[nH]c3)cn12 [Example 57, 4-(6-(6-(1H-pyrazol-4-yl)-[1,2,4]triazolo[4,3-a]pyridin-3-ylthio)quinolin-3-yl)morpholine] | 10000 nM |  |  | 10 nM | […] |  |
| Cn1cc(-c2cnc3ccc(Sc4nnc5ccc(-c6cnn(CCO)c6)cn45)cc3c2)cn1 [Reference Example No. 73, 2-(4-(3-(3-(1-methyl-1H-pyrazol-4-yl)quinolin-6-ylthio)-[1,2,4]triazolo[4,3-a]pyridin-6-yl)-1H-pyrazol-1-yl)ethanol, reference compound] |  | 7 nM |  |  | 5 nM |  |
| Cn1cc(-c2cc(F)c3nnc(Sc4ccc5ncc(N)cc5c4)n3c2)cn1 [Example 55, 6-(8-Fluoro-6-(1-methyl-1H-pyrazol-4-yl)-[1,2,4]triazolo[4,3-a]pyridin-3-ylthio)quinolin-3-amine hydrochloride] | > 30000 nM |  |  |  | […] | 1 nM |
| Cn1cc(-c2cc(F)c3nnc(Sc4ccc5ncc(N6CCC(N7CCCCC7)CC6)cc5c4)n3c2)cn1 [Example 31, 3-(1,4′-Bipiperidin-1′-yl)-6-(8-fluoro-6-(1-methyl-1H-pyrazol-4-yl)-[1,2,4]triazolo[4,3-a]pyridin-3-ylthio)quinoline] | 30000 nM |  | 3 nM | 0.4 nM |  |  |
| Cn1cc(-c2ccc3nnc(Sc4ccc5ncc(N)cc5c4)n3c2)cn1 [Example 56, 6-(6-(1-Methyl-1H-pyrazol-4-yl)-[1,2,4]triazolo[4,3-a]pyridin-3-ylthio)quinolin-3-amine hydrochloride] | 17000 nM |  |  |  | 13 nM | 33 nM |
| CC1CN(c2cnc3ccc(Sc4nnc5ccc(-c6cnn(C)c6)cn45)cc3c2)CCO1 (centres unmarked) [Example 35, 2-Methyl-4-(6-(6-(1-methyl-1H-pyrazol-4-yl)-[1,2,4]triazolo[4,3-a]pyridin-3-ylthio)quinolin-3-yl)morpholine] |  |  | 4 nM | 0.4 nM |  |  |
| C/C(=N\OCCO)c1ccc2nnc(Cc3ccc4ncc(N5CCN(C)CC5)cc4c3)n2n1 [Comparator No. 2, 1-{3-[3-(4-Methyl-piperazin-1-yl)-quinolin-6-ylmethyl]-[1,2,4]triazolo[4,3-b]pyridazin-6-yl}-ethanone O-(2-hydroxy-ethyl)-oxime] |  | 4 nM |  |  |  |  |
| Cn1cc(-c2ccc3nnc(Sc4ccc5ncc(N6CCN(c7ccccc7)CC6)cc5c4)n3c2)cn1 [Example 34, 6-(6-(1-Methyl-1H-pyrazol-4-yl)-[1,2,4]triazolo[4,3-a]pyridin-3-ylthio)-3-(4-phenylpiperazin-1-yl)quinoline] | 30000 nM |  | 45 nM | 1 nM |  |  |
| Cn1cc(-c2ccc3nnc(Sc4ccc5ncc(N6CCC(N7CCCCC7)CC6)cc5c4)n3c2)cn1 [Example 30, 3-(1,4′-Bipiperidin-1′-yl)-6-(6-(1-methyl-1H-pyrazol-4-yl)-[1,2,4]triazolo[4,3-a]pyridin-3-ylthio)quinoline] | 25000 nM |  | […] | […] |  |  |
| Cn1cc(-c2ccc3nnc(Sc4ccc5ncc(N6CCN(C7CCCCC7)CC6)cc5c4)n3c2)cn1 [Example 32, 3-(4-Cyclohexylpiperazin-1-yl)-6-(6-(1-methyl-1H-pyrazol-4-yl)-[1,2,4]triazolo[4,3-a]pyridin-3-ylthio)quinoline] | 26000 nM |  | […] | 4 nM |  |  |
| Cn1cc(-c2ccc3nnc(C(F)(F)c4ccc5ncccc5c4)n3n2)cn1 [Comparator No. 1 (JNJ-38877605), 6-{Difluoro-[6-(1-methyl-1H-pyrazol-4-yl)-[1,2,4]triazolo[4,3-b]pyridazin-3-yl]-methyl}-quinoline, reference compound] |  | 4 nM | 3 nM | < 10 nM |  |  |
| Cn1cc(-c2ccc3nnc(Sc4ccc5ncc(NC6CCN(C(=O)OC(C)(C)C)CC6)cc5c4)n3c2)cn1 [Example 22, tert-Butyl 4-(6-(6-(1-methyl-1H-pyrazol-4-yl)-[1,2,4]triazolo[4,3-a]pyridin-3-ylthio)quinolin-3-ylamino)piperidine-1-carboxylate] | 15000 nM |  | 19 nM | 2 nM |  |  |
| CN(C)[C@H]1CCN(c2cnc3ccc(Sc4nnc5c(F)cc(-c6cnn(C)c6)cn45)cc3c2)C1 [Example 13, (S)-1-(6-(8-Fluoro-6-(1-methyl-1H-pyrazol-4-yl)-[1,2,4]triazolo[4,3-a]pyridin-3-ylthio)quinolin-3-yl)-N,N-dimethylpyrrolidin-3-amine] | 24000 nM |  |  | 0.4 nM |  |  |

More lines, main results first:

| IC50 [1] | IC50 [4] | IC50 [3, 5] | SMILES | IC50 ([2]; GTL16 cells, 24 hours) | IC50 [3] | IC50 [2] |
| --- | --- | --- | --- | --- | --- | --- |
| 16000 nM |  | 5 nM | C[C@H]1CN(c2cnc3ccc(Sc4nnc5ccc(-c6cnn(C)c6)cn45)cc3c2)CCO1 [Example 35A, (S)-2-Methyl-4-(6-(6-(1-methyl-1H-pyrazol-4-yl)-[1,2,4]triazolo[4,3-a]pyridin-3-ylthio)quinolin-3-yl)morpholine] | 1 nM |  |  |
|  | 15 nM |  | Cn1cc(-c2ccc3nnc(Sc4ccc5ncccc5c4)n3c2)cn1 [Reference Example No. 63, 6-(6-(1-methyl-1H-pyrazol-4-yl)-[1,2,4]triazolo[4,3-a]pyridin-3-ylthio)quinoline] |  |  |  |
| > 30000 nM |  | 83 nM | C/C(=N\O)c1ccc2nnc(Sc3ccc4ncc(CN5CCOCC5)cc4c3)n2c1 [Example 79, (E)-1-(3-(3-(Morpholin-4-yl-methyl)quinolin-6-ylthio)-[1,2,4]triazolo[4,3-a]pyridin-6-yl)ethanone oxime] | 1140 nM |  |  |
| 29000 nM |  | 4 nM | C[C@@H]1CN(c2cnc3ccc(Sc4nnc5ccc(-c6cnn(C)c6)cn45)cc3c2)C[C@H](C)N1 [Example 42, 3-((3S,5R)-3,5-Dimethylpiperazin-1-yl)-6-(6-(1-methyl-1H-pyrazol-4-yl)-[1,2,4]triazolo[4,3-a]pyridin-3-ylthio)quinoline] | 0.6 nM |  |  |
| 30000 nM |  | […] | C[C@H]1CNCCN1c1cnc2ccc(Sc3nnc4c(F)cc(-c5cnn(C)c5)cn34)cc2c1 [Example 46, (S)-6-(8-Fluoro-6-(1-methyl-1H-pyrazol-4-yl)-[1,2,4]triazolo[4,3-a]pyridin-3-ylthio)-3-(2-methylpiperazin-1-yl)quinoline] |  |  |  |
|  |  | 4 nM | C[C@@H]1CN(c2cnc3ccc(Sc4nnc5ccc(-c6cnn(C)c6)cn45)cc3c2)CCO1 [Example 35B, (R)-2-Methyl-4-(6-(6-(1-methyl-1H-pyrazol-4-yl)-[1,2,4]triazolo[4,3-a]pyridin-3-ylthio)quinolin-3-yl)morpholine] | 4 nM |  |  |
| 10000 nM |  |  | Cn1cc(-c2ccc3nnc(Sc4ccc5ncc(NC6CCOCC6)cc5c4)n3c2)cn1 [Example 68, {6-[6-(1-Methyl-1H-pyrazol-4-yl)-[1,2,4]triazolo[4,3-a]pyridin-3-ylsulfanyl]-quinolin-3-yl}-(tetrahydro-pyran-4-yl)-amine] | 3 nM |  |  |
| 13000 nM |  | […] | Fc1cc(-c2cn[nH]c2)cn2c(Sc3ccc4ncc(N5CCOCC5)cc4c3)nnc12 [Example 58, 4-(6-(8-Fluoro-6-(1H-pyrazol-4-yl)-[1,2,4]triazolo[4,3-a]pyridin-3-ylthio)quinolin-3-yl)morpholine] | 8 nM |  |  |
